Measurements: ChEMBL document CHEMBL4261630

Tests used:
[1] = test system: Bifidobacterium longum subsp. infantis; conditions: ATCC 15697, at 0.1 mM
[2] = biological target: T1, Sialidase B (Streptococcus pneumoniae serotype 4 (strain ATCC BAA-334 / TIGR4)) (UniProt Q54727); conditions: at 0.1 mM
T1 sequence (whole entry): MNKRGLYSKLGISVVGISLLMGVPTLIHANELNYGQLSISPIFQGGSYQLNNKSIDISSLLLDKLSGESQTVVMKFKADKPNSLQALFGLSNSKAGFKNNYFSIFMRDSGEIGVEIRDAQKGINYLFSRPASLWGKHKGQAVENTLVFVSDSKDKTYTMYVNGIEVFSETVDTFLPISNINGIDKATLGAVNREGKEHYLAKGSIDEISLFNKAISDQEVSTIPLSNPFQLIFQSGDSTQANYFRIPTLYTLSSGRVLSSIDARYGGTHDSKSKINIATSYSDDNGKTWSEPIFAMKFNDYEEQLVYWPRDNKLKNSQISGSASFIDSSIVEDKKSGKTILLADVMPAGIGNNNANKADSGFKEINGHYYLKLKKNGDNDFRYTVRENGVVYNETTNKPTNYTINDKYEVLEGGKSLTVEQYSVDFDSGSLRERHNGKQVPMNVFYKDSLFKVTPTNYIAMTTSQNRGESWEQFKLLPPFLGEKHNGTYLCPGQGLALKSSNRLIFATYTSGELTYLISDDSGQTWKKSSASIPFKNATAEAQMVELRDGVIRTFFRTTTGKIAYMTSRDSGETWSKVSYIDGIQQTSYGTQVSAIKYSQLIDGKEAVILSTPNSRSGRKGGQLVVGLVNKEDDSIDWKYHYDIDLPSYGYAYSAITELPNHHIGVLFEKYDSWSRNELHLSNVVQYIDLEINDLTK

[3] = biological target: T2, Neuraminidase C (Streptococcus pneumoniae) (UniProt A0A0B7LH44); conditions: at 0.1 mM
T2 sequence (whole entry): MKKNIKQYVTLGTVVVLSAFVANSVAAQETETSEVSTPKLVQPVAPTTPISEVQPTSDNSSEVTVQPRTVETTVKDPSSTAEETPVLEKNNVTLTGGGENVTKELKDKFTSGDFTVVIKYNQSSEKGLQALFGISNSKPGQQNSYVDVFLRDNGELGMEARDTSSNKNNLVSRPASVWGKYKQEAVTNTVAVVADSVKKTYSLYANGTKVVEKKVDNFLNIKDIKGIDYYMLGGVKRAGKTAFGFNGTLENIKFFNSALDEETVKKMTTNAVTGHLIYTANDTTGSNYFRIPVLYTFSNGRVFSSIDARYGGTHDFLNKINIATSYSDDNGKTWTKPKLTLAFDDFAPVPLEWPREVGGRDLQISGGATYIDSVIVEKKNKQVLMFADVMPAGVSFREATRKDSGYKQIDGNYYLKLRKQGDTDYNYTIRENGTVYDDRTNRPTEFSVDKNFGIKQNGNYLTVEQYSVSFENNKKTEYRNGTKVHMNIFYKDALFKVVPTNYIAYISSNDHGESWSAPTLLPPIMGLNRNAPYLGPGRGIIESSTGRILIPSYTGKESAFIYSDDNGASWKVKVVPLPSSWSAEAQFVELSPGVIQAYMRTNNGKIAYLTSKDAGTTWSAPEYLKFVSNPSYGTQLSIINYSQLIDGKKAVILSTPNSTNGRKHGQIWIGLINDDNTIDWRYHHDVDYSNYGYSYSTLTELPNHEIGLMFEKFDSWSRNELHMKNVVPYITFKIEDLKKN

Sialidase A = Sialidase A (Streptococcus pneumoniae, UniProt P62575); experiment: Inhibition of Streptococcus pneumoniae NanA using Neu5Acalpha2-3GalbetapNP as substrate after 30 mins by colorimetric assay
Chain of Sialidase A (P62575 whole entry): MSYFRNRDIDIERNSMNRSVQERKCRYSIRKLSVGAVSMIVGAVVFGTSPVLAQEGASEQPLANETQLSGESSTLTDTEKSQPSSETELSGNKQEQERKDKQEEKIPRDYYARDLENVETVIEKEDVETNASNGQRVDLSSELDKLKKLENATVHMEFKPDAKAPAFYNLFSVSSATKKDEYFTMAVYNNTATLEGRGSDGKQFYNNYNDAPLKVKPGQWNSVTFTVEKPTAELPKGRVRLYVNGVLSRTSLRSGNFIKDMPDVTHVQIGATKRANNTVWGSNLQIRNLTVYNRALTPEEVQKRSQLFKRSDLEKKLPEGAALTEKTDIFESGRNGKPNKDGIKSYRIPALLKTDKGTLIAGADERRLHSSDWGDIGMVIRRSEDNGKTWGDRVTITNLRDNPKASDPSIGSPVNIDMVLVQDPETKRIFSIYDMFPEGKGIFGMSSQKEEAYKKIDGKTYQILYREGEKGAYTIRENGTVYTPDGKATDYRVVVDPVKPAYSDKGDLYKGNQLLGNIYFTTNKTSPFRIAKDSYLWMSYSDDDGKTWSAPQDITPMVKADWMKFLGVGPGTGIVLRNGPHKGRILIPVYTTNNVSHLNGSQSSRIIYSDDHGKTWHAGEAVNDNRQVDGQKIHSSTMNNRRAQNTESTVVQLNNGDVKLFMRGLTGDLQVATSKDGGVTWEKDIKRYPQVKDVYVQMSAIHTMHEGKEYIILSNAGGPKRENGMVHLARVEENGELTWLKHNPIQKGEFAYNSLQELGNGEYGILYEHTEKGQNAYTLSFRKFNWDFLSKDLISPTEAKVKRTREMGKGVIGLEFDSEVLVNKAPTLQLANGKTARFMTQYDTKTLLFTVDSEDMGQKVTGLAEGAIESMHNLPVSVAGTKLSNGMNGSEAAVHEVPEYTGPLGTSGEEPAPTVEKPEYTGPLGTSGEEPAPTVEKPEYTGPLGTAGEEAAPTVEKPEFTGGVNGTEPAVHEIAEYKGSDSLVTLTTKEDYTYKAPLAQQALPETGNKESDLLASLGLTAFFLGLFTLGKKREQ

[4] = biological target: T3, Sialidase (Clostridium perfringens) (UniProt P10481); conditions: at 1 mM
T3 sequence (whole entry): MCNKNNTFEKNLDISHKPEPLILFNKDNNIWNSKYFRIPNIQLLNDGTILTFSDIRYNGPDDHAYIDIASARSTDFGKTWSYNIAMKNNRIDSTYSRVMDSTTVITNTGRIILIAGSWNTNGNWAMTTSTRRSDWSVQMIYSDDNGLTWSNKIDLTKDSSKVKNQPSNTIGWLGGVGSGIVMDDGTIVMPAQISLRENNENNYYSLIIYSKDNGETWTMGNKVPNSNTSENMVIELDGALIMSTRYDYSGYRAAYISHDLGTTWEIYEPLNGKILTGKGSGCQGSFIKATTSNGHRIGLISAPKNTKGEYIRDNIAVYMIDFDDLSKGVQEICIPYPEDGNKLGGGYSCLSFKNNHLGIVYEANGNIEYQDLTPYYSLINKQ

[5] = biological target: Sialidase (Vibrio cholerae serotype O1 (strain ATCC 39315 / El Tor Inaba N16961)) (UniProt P0C6E9); conditions: at 0.1 mM
Chain of Sialidase (Vibrio cholerae serotype O1 (strain ATCC 39315 / El Tor Inaba N16961)) (P0C6E9 whole entry, one chain of several): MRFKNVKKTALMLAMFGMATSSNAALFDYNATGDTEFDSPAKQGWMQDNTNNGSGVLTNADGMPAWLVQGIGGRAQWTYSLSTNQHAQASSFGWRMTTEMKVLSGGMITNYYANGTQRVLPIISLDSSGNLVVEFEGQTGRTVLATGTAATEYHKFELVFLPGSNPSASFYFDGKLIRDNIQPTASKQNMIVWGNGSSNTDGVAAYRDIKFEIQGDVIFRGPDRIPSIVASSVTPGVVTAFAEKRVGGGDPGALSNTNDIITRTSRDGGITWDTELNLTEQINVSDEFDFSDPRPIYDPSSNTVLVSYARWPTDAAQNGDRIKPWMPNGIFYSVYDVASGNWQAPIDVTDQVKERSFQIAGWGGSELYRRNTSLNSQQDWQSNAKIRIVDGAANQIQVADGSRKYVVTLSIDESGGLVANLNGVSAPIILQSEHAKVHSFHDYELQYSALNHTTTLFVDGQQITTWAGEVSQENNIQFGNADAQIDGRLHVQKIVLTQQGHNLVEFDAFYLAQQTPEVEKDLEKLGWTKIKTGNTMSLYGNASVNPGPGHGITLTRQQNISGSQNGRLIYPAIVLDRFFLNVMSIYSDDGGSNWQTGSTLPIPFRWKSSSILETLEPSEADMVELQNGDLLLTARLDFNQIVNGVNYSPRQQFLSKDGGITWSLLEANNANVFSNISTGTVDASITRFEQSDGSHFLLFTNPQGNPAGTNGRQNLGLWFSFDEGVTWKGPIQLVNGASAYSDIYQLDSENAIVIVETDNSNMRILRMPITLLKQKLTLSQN

[6] = biological target: Sialidase A (Streptococcus pneumoniae) (UniProt P62575); conditions: at 0.1 mM
Chain of Sialidase A (Streptococcus pneumoniae) (P62575 whole entry): as the sequence (P62575 whole entry) above

Pasteurella multocida [7] = conditions: at 1 mM
[8] = biological target: Sialidase (Vibrio cholerae serotype O1 (strain ATCC 39315 / El Tor Inaba N16961)) (UniProt P0C6E9); conditions: at 1 mM
[9] = biological target: Sialidase A (Streptococcus pneumoniae) (UniProt P62575); conditions: at 1 mM
Sialidase B = biological target: T4, Sialidase B (Streptococcus pneumoniae serotype 4 (strain ATCC BAA-334 / TIGR4), UniProt Q54727); experiment: Inhibition of Streptococcus pneumoniae NanB using Neu5Acalpha2-3GalbetapNP as substrate after 30 mins by colorimetric assay
T4 sequence (Q54727 whole entry): T1 sequence (whole entry)

Sialidase = Sialidase (Vibrio cholerae serotype O1 (strain ATCC 39315 / El Tor Inaba N16961), UniProt P0C6E9); experiment: Inhibition of Vibrio cholerae sialidase using Neu5Acalpha2-3GalbetapNP as substrate after 30 mins by colorimetric assay
Chain of Sialidase (P0C6E9 whole entry, one chain of several): as the sequence (P0C6E9 whole entry, one chain of several) above

[10] = biological target: T1, Sialidase B (Streptococcus pneumoniae serotype 4 (strain ATCC BAA-334 / TIGR4)); conditions: at 1 mM
[11] = Inhibition of Arthrobacter ureafaciens sialidase using Neu5Acalpha2-3GalbetapNP as substrate after 30 mins by colorimetric assay; parameters: species or system Paenarthrobacter ureafaciens
[12] = biological target: T2, Neuraminidase C (Streptococcus pneumoniae); conditions: at 1 mM
[13] = Inhibition of Bifidobacterium longum subsp. infantis ATCC 15697 sialidase 2 (BiNanH2) using Neu5Acalpha2-3GalbetapNP as substrate after 30 mins by colorimetric assay
[14] = biological target: T3, Sialidase (Clostridium perfringens); conditions: at 0.1 mM
Pasteurella multocida [15] = conditions: at 0.1 mM
[16] = test system: Paenarthrobacter ureafaciens; conditions: at 1 mM
[17] = test system: Paenarthrobacter ureafaciens; conditions: at 0.1 mM
Neuraminidase C = biological target: T5, Neuraminidase C (Streptococcus pneumoniae, UniProt A0A0B7LH44); experiment: Inhibition of Streptococcus pneumoniae sialidase NanC using Neu5Acalpha2-3GalbetapNP as substrate after 30 mins by colorimetric assay
T5 sequence (A0A0B7LH44 whole entry): T2 sequence (whole entry)

[18] = Inhibition of Pasteurella multocida sialyltransferase 1 using Neu5Acalpha2-3GalbetapNP as substrate after 30 mins by colorimetric assay
[19] = test system: Bifidobacterium longum subsp. infantis; conditions: ATCC 15697, at 1 mM

Row | SMILES | inhibition [1] | inhibition [2] | inhibition [3] | IC50 (Sialidase A) | inhibition [4] | inhibition [5] | inhibition [6] | inhibition (Pasteurella multocida [7]) | inhibition [8] | inhibition [9] | IC50 (Sialidase B) | IC50 (Sialidase) | inhibition [10] | inhibition [12] | inhibition [14] | inhibition (Pasteurella multocida [15]) | inhibition [16] | inhibition [17] | IC50 (Neuraminidase C) | IC50 [18] | also measured
1 | CC(=O)N[C@H]1[C@H]([C@H](O)[C@H](O)CN=[N+]=[N-])OC(C(=O)O)=C[C@@H]1O | 49.4% | 6.6% | 13.4% | 44.3 µM | 89.3% | 86% | 78.6% | 14.9% | 95.6% | 98.8% | > 1 mM | 20 µM | 35.2% | 39.2% | 57.1% | 1.7% | 99.5% | 99.2% | > 1 mM | > 1 mM | IC50 [11]: 720 nM; IC50 [13]: 0.1 to 1 mM; inhibition [19]: 86.7%
2 | CC(=O)N[C@H]1[C@H]([C@H](O)[C@H](O)Cn2cc(C[C@H](NC(=O)[C@@H](N)CCC(=O)O)C(=O)N[C@@H](CCCCN)C(=O)N[C@@H](CCC(=O)O)C(N)=O)nn2)OC(C(=O)O)=C[C@@H]1O | – | – | – | – | – | – | – | – | – | – | – | – | – | 9.8% | – | – | – | – | > 1 mM | > 1 mM | IC50 [13]: > 1 mM
3 | CC(=O)N[C@H]1[C@H]([C@H](O)[C@H](O)Cn2cc(C[C@H](N)C(=O)O)nn2)OC(C(=O)O)=C[C@@H]1O | 0% | 8.8% | 15.3% | 100 to 1000 µM | 69.7% | 82% | 42.9% | 9.1% | 93.2% | 84.4% | > 1 mM | 13.5 µM | 35.5% | 47.8% | 17.6% | 2.8% | 85.6% | 42.1% | > 1 mM | > 1 mM | IC50 [13]: > 1 mM; inhibition [19]: 14.7%
4 | CC(=O)N[C@H]1[C@H]([C@H](O)[C@H](O)CO)OC(C(=O)O)=C[C@@H]1O [NEU5AC2EN] | – | 2.7% | 6.3% | – | 92.6% | 88.2% | 94.9% | 9.3% | 94.5% | 99.9% | – | – | 31.9% | 23.7% | 72.1% | 2.1% | 99% | 95.8% | > 1 mM | > 1 mM | IC50 [11]: 8100 nM
5 | CC(=O)N[C@H]1[C@H]([C@H](O)[C@H](O)Cn2cc(C[C@H](N)C(=O)N[C@H](CCC(=O)O)C(N)=O)nn2)OC(C(=O)O)=C[C@@H]1O | 3.3% | 12.6% | 13.5% | 65.6 µM | 84.6% | 85.8% | 61.9% | 6% | 93.5% | 94.7% | > 1 mM | 10.9 µM | 39% | 29.7% | 48.9% | 0.1% | 96.2% | 95.7% | > 1 mM | > 1 mM | IC50 [11]: 1870 nM; inhibition [19]: 76.4%
